Experimental data taken from patent publication US9840478B2 (MERCK SHARP & DOHME CORP., priority 2013, dated 2017).

Test system: HIV-1 (H9IIIB strain)
Experiment: Cell-based HIV infection assay using a reporter (Cell-Based), MT4-GFP cells
Details: Human immunodeficiency virus 1, MT4-GFP cells infected with HIV-1 H9IIIB; 50% normal human serum; mean of at least two independent experiments; read-out: Cell-based IP
Method in brief: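 MT4-GFP cells (HIV LTR-driven GFP) infected 24 h with HIV-1 H9IIIB at low MOI, then washed and plated with compounds in RPMI + 50% normal human serum, 0.4% DMSO final. Green cells counted at 24 and 48 h; R0 = 48 h/24 h ratio, inhibition normalized to DMSO and triple-drug control; IC50 from 4-parameter fit.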

CC(=O)Nc1nc(S(=O)(=O)N2CCNC[C@@H]2CCc2c(F)cncc2NC(=O)C[C@@H](c2ccc(F)cc2)c2cc(F)cc(F)c2)c(C)s1 [Example 309, (3S)-N-(4-{2-[(2S)-1-{[2-(acetylamino)-5-methyl-1,3-thiazol-4-yl]sulfonyl}piperazin-2-yl]ethyl}-5-fluoropyridin-3-yl)-3-(3,5-difluorophenyl)-3-(4-fluorophenyl)propanmide] and CC(=O)Nc1nc(C)c(S(=O)(=O)N2CCNC[C@@H]2CCc2c(F)cncc2NC(=O)C[C@@H](c2ccc(F)cc2)c2cc(F)cc(F)c2)s1 [Example 318, (3S)-N-(4-{2-[(2S)-1-{[2-(acetylamino)-4-methyl-1,3-thiazol-5-yl]sulfonyl}piperazin-2-yl]ethyl}-5-fluoropyridin-3-yl)-3-(3,5-difluorophenyl)-3-(4-fluorophenyl)propanamide] are within 1.5-fold of each other in IC50: 140 nM for the first, 97 nM for the second.

O=C(C[C@@H](c1ccc(F)cc1)c1cc(F)cc(F)c1)Nc1cncc(F)c1CC[C@H]1CNCCN1S(=O)(=O)Cc1ccc(C(F)(F)F)cc1 [Example 310, (3S)-3-(3,5-difluorophenyl)-3-(4-fluorophenyl)-N-(5-fluoro-4-{2-[(2S)-1-{[4-(trifluoromethyl)benzyl]sulfonyl}piperazin-2-yl]ethyl}pyridin-3-yl)propanamide] and O=C(C[C@@H](c1ccc(F)cc1)c1cc(F)cc(F)c1)Nc1cncc(F)c1CC[C@H]1CNCCN1S(=O)(=O)CC(F)(F)F [Example 315, (3S)-3-(3,5-difluorophenyl)-3-(4-fluorophenyl)-N-[5-fluoro-4-(2-{(2S)-1-[(2,2,2-trifluoroethyl)sulfonyl]piperazin-2-yl}ethyl)pyridin-3-yl]propanamide] are within 1.5-fold of each other in IC50: 1700 nM for the first, 1900 nM for the second.

O=C(C[C@@H](c1ccc(F)cc1)c1cc(F)cc(F)c1)Nc1cncc(F)c1CC[C@H]1CNCCN1S(=O)(=O)c1ccc(-c2ccccn2)s1 [Example 311, (3S)-3-(3,5-difluorophenyl)-3-(4-fluorophenyl)-N-[5-fluoro-4-(2-{(2S)-1-[(5-pyridin-2-ylthiophen-2-yl)sulfonyl]piperazin-2-yl}ethyl)pyridin-3-yl]propanamide] and O=C(C[C@@H](c1ccc(F)cc1)c1cc(F)cc(F)c1)Nc1cncc(F)c1CC[C@H]1CNCCN1S(=O)(=O)c1cnc2ccccc2c1 [Example 321, (3S)-3-(3,5-difluorophenyl)-3-(4-fluorophenyl)-N-(5-fluoro-4-{2-[(2S)-1-(quinolin-3-ylsulfonyl)piperazin-2-yl]ethyl}pyridin-3-yl)propanamide] are within 1.5-fold of each other in IC50: 20 nM for the first, 29 nM for the second.

First: CCOC(=O)c1nc(-c2ccc(S(=O)(=O)N3CCNC[C@@H]3CCc3c(F)cncc3NC(=O)C[C@@H](c3ccc(F)cc3)c3cc(F)cc(F)c3)s2)no1 [Example 312, ethyl 3-[5-({(2S)-2-[2-(3-{[(3S)-3-(3,5-difluorophenyl)-3-(4-fluorophenyl)propanoyl]amino}-5-fluoropyridin-4-yl)ethyl]piperazin-1-yl}sulfonyl)thiophen-2-yl]-1,2,4-oxadiazole-5-carboxylate]
Second: CC(=O)Nc1cccc(S(=O)(=O)N2CCNC[C@@H]2CCc2c(F)cncc2NC(=O)C[C@@H](c2ccc(F)cc2)c2cc(F)cc(F)c2)c1 [Example 320, (3S)-N-(4-{2-[(2S)-1-{[3-(acetylamino)phenyl]sul-fonyl}piperazin-2-yl]ethyl}-5-fluoropyridin-3-yl)-3-(3,5-difluorophenyl)-3-(4-fluorophenyl)propanamide]
The IC50 of the first is 3.9-fold higher: 140 nM for the first, 36 nM for the second. The second is the more potent here.

CS(=O)(=O)c1ccc(S(=O)(=O)N2CCNC[C@@H]2CCc2c(F)cncc2NC(=O)C[C@@H](c2ccc(F)cc2)c2cc(F)cc(F)c2)cc1 [Example 313, (3S)-3-(3,5-difluorophenyl)-N-(5-fluoro-4-{2-[(2S)-1-{[4-(methylsulfonyl)phenyl]sulfonyl}piperazin-2-yl]ethyl}pyridin-3-yl)-3-(4-fluorophenyl)propanamide] and O=Cc1ccc(S(=O)(=O)N2CCNC[C@@H]2CCc2c(F)cncc2NC(=O)C[C@@H](c2ccc(F)cc2)c2cc(F)cc(F)c2)cc1 [Example 319, (3S)-3-(3,5-difluorophenyl)-N-[5-fluoro-4-(2-{(2S)-1-[(4-formylphenyl)sulfonyl]piperazin-2-yl}ethyl)pyridin-3-yl]-3-(4-fluorophenyl)propanamide] are within 1.5-fold of each other in IC50: 48 nM for the first, 59 nM for the second.

Going from O=C(C[C@@H](c1ccc(F)cc1)c1cc(F)cc(F)c1)Nc1cncc(F)c1CC[C@H]1CNCCN1S(=O)(=O)c1ccc(OC(F)(F)F)cc1 [Example 314, (3S)-3-(3,5-difluorophenyl)-3-(4-fluorophenyl)-N-(5-fluoro-4-{2-[(2S)-1-{[4-(trifluoromethoxy)phenyl]sulfonyl}piperazin-2-yl]ethyl}pyridin-3-yl)propanamide] to Cn1cc(S(=O)(=O)N2CCNC[C@@H]2CCc2c(F)cncc2NC(=O)C[C@@H](c2ccc(F)cc2)c2cc(F)cc(F)c2)cn1 [Example 316, (3S)-3-(3,5-difluorophenyl)-N-[5-fluoro-4-(2-{(2S)-1-[(1-methyl-1H-pyrazol-4-yl)sulfonyl]piperazin-2-yl}ethyl)pyridin-3-yl]-3-(4-fluorophenyl)propanamide], the IC50 rises from 9.2 nM to 19 nM (2.1-fold). The first is the more potent here.

Compared with CCCS(=O)(=O)N1CCNC[C@@H]1CCc1c(F)cncc1NC(=O)C[C@@H](c1ccc(F)cc1)c1cc(F)cc(F)c1 [Example 317, (3S)-3-(3,5-difluorophenyl)-3-(4-fluorophenyl)-N-(5-fluoro-4-{2-[(2S)-1-(propylsulfonyl)piperazin-2-yl]ethyl}pyridin-3-yl)propanamide], CC(C)NS(=O)(=O)N1CCNC[C@@H]1CCc1c(F)cncc1NC(=O)C[C@@H](c1ccc(F)cc1)c1cc(F)cc(F)c1 [Example 324, (3S)-3-(3,5-difluorophenyl)-N-[5-fluoro-4-(2-{(2S)-1-[(1-methylethyl)sulfamoyl]piperazin-2-yl}ethyl)pyridin-3-yl]-3-(4-fluorophenyl)propanamide] is 1.7-fold higher in IC50: 24 nM for the first, 40 nM for the second.

Going from O=C(C[C@@H](c1ccc(F)cc1)c1cc(F)cc(F)c1)Nc1cncc(F)c1CC[C@H]1CNCCN1S(=O)(=O)N1CCc2ccccc2C1 [Example 322, (3S)-3-(3,5-difluorophenyl)-N-(4-{2-[(2S)-1-(3,4-dihydroisoquinolin-2(1H)-ylsulfonyl)piperazin-2-yl]ethyl}-5-fluoropyridin-3-yl)-3-(4-fluorophenyl)propanamide] to O=C(C[C@@H](c1ccc(F)cc1)c1cc(F)cc(F)c1)Nc1cncc(F)c1CC[C@H]1CNCCN1S(=O)(=O)N1CCCC1 [Example 323, (3S)-3-(3,5-difluorophenyl)-3-(4-fluorophenyl)-N-(5-fluoro-4-{2-[(2S)-1-(pyrrolidin-1-ylsulfonyl)piperazin-2-yl]ethyl}pyridin-3-yl)propanamide], the IC50 falls from 530 nM to 4.8 nM (110-fold). The second is the more potent here.

Compared with O=C(C[C@@H](c1ccc(F)cc1)c1cc(F)cc(F)c1)Nc1cncc(F)c1CC[C@H]1CNCCN1S(=O)(=O)N1CCCCC1 [Example 325, (3S)-3-(3,5-difluorophenyl)-3-(4-fluorophenyl)-N-(5-fluoro-4-{2-[(2S)-1-(piperidin-1-ylsulfonyl)piperazin-2-yl]ethyl}pyridin-3-yl)propanamide], O=C(C[C@@H](c1ccc(F)cc1)c1cc(F)cc(F)c1)Nc1cncc(F)c1CC[C@H]1CNCCN1S(=O)(=O)N1CCOCC1 [Example 326, (3S)-3-(3,5-difluorophenyl)-N-(5-fluoro-4-{2-[(2S)-1-(morpholin-4-ylsulfonyl)piperazin-2-yl]ethyl}pyridin-3-yl)-3-(4-fluorophenyl)propanamide] is 1.6-fold lower in IC50: 13 nM for the first, 8 nM for the second.

First: O=C(C[C@@H](c1ccc(F)cc1)c1cc(F)cc(F)c1)Nc1cncc(F)c1CC[C@H]1CNCCN1S(=O)(=O)N1CC[C@@H](F)C1 [Example 327, (3S)-3-(3,5-difluorophenyl)-N-(5-fluoro-4-{2-[(2)S-1-{[(3R)-3-fluoropyrrolidin-1-yl]sulfonyl}piperazin-2-yl]ethyl}pyridin-3-yl)-3-(4-fluorophenyl)propanamide]
Second: O=C(C[C@@H](c1ccc(F)cc1)c1cc(F)cc(F)c1)Nc1cncc(F)c1CC[C@H]1CNCCN1S(=O)(=O)N1CCC(F)CC1 [Example 331, (3S)-3-(3,5-difluorophenyl)-N-[5-fluoro-4-(2-{(2S)-1-[(4-fluoropiperidin-1-yl)sulfonyl]piperazin-2-yl}ethyl)pyridin-3-yl]-3-(4-fluorophenyl)propanamide]
The IC50 of the first is 2-fold lower: 9.4 nM for the first, 19 nM for the second. The first is the more potent here.

Compared with O=C(C[C@@H](c1ccc(F)cc1)c1cc(F)cc(F)c1)Nc1cncc(F)c1CC[C@H]1CNCCN1S(=O)(=O)N1CCC(F)(F)C1 [Example 329, (3S)-3-(3,5-difluorophenyl)-N-[4-(2-{(2)S-1-[(3,3-difluoropyrrolidin-1-yl)sulfonyl]piperazin-2-yl}ethyl)-5-fluoropyridin-3-yl]-3-(4-fluorophenyl)propanamide], O=C(C[C@@H](c1ccc(F)cc1)c1cc(F)cc(F)c1)Nc1cncc(F)c1CC[C@H]1CNCCN1S(=O)(=O)N1CCCC(F)(F)C1 [Example 332, (3S)-3-(3,5-difluorophenyl)-N-[4-(2-{(2S)-1-[(3,3-difluoropiperidin-1-yl)sulfonyl]piperazin-2-yl}ethyl)-5-fluoropyridin-3-yl]-3-(4-fluorophenyl)propanamide] is 8.7-fold higher in IC50: 47 nM for the first, 410 nM for the second.

For O=C(C[C@@H](c1ccc(F)cc1)c1cc(F)cc(F)c1)Nc1cncc(F)c1CC[C@H]1CNCCN1S(=O)(=O)N1CCC(F)(F)CC1 [Example 330, (3S)-3-(3,5-difluorophenyl)-N-[4-(2-{(2S)-1-[(4,4-difluoropiperidin-1-yl)sulfonyl]piperazin-2-yl}ethyl)-5-fluoropyridin-3-yl]-3-(4-fluorophenyl)propanamide], the IC50 was 43 nM.

Same assay, conditions: MT4-GFP cells infected with HIV-1 H9IIIB; 50% normal human serum; mean of at least two independent experiments; read-out: Cell-based IP

For O=C(C[C@@H](c1ccc(F)cc1)c1cc(F)cc(F)c1)Nc1cncc(F)c1CC[C@H]1CNCCN1S(=O)(=O)N1CC[C@@H](F)C1 [Example 328, (3S)-3-(3,5-difluorophenyl)-N-(5-fluoro-4-{2-[(2S)-1-{[(3S)-3-fluoropyrrolidin-1-yl]sulfonyl}piperazin-2-yl]ethyl}pyridin-3-yl)-3-(4-fluorophenyl)propanmide], the IC50 was 16 nM.
